Measurements: publication PMC9006293 (Blood Advances, 2022)

What was measured:
[1] = test system: DNIMV-specific T-cell hybridoma clones; assay: Antigen-presentation assay, DNIMV-specific clones with fresh or fixed MGAR APCs; format: cell-based, mouse; settings: fresh and paraformaldehyde-fixed MGAR APCs, 48 hours, ELISA
HLA-DR molecules = settings: FVIII-pulsed donor-derived human dendritic cells with diverse HLA-DRB1* molecules; cited from earlier work
[2] = test system: PRCLT-specific T-cell hybridoma clones; assay: Antigen-presentation assay, PRCLT-specific clones with fresh or fixed MGAR APCs; format: cell-based, mouse; settings: fresh and paraformaldehyde-fixed MGAR APCs, 48 hours, ELISA

## DNIMVTFRNQASRPY
[1]
  IL-2 response of DNIMV-specific clones: activated

## FRNQASRPY
HLA-DR molecules
  HLA-DR binding: promiscuous pan-DR HLA-DR binding peptide

## PRCLTRYYSSFVNME
[2]
  IL-2 response of PRCLT-specific clones: produced IL-2
